Measured values from patent US20070087352A9, “Inhibitors for androgen antagonist refractory prostate cancer” (priority 2003, published 2007).

Experiments:
[1] = target: T1, hERα-LBD (Homo sapiens, UniProt P03372); assay: Electrophoretic mobility shift assay (native PAGE); format: binding; settings: 2-fold or 10-fold molar excess of peptide, 6% native PAGE
T1 sequence (P03372 311-547 limits assumed): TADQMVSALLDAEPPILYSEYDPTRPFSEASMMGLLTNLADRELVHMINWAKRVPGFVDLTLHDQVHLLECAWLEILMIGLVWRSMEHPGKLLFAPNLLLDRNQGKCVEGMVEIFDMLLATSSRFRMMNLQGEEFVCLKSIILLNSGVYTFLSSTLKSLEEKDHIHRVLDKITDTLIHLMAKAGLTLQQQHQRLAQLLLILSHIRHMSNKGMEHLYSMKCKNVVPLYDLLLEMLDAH
Procedure: Eight microgram samples of purified hERα-LBD bound to either DES or OHT were incubated in the absence of the GRIP1 NR Box 2 peptide (SEQ ID NO:4), i.e., buffer alone, or in the presence of either a 2-fold or 10-fold molar excess of the GRIP1 NR Box 2 peptide. The binding reactions were performed on ice for 45 minutes in 10 μl of buffer containing 20 mM Tris, pH 8.1, 1 mM DTT, and 200 mM NaCl and then subjected to 6% native PAGE. Gels were stained with GELCODE Blue Stain reagent (Pierce).
In the presence of the NR box 2 peptide, the migration of the DES-LBD complex was retarded. In contrast, peptide addition had no effect on the mobility of the OHT-LBD complex.

[2] = target: T2, agonist-bound ERα LBD (Homo sapiens, UniProt P03372); assay: Competition assays of GRIP1 NR Box 2 peptide; settings: binding to agonist-bound ERα LBD
T2 sequence (P03372 311-547 limits assumed): T1 sequence (P03372 311-547 limits assumed)

Substance: H-KHKILHRLLQDSS-OH [GRIP1 NR Box 2 peptide]
- migration of the DES-LBD complex ([1]; hERα-LBD bound to agonist DES): retarded
- mobility of the OHT-LBD complex ([1]; hERα-LBD bound to antagonist OHT): no effect
- IC50 [2]: < 400 nM
